Earlier results, collected in paper PMC4206604 (Journal of pharmaceutical sciences, 2014).

Molecular target: T1, NTCP (Homo sapiens, UniProt Q14973)
T1 sequence (Q14973 1-349): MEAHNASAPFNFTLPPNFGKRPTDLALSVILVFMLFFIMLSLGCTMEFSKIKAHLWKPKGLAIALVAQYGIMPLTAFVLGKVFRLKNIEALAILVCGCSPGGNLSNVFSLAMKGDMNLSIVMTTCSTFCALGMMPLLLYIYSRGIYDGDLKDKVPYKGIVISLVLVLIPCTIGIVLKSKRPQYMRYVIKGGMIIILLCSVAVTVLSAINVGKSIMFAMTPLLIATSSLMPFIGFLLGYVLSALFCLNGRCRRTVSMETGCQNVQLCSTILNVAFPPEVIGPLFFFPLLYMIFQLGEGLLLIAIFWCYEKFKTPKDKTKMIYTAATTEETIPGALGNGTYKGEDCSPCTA
Settings: read-out: NTCP Km; same cell line

C[C@H](CCC(=O)NCCS(=O)(=O)O)[C@H]1CC[C@H]2[C@@H]3[C@H](O)C[C@@H]4C[C@H](O)CC[C@]4(C)[C@H]3C[C@H](O)[C@]12C [taurocholate]
Km: 5.31 µM
